Data published in patent publication US20140162974A1, “METHODS FOR MODULATION OF PHOSPHORUS AND FGF23” (Luitpold Pharmaceuticals, Inc., priority 2012, published 2014).

What was measured:
[1] = test system: hemoglobin, ferritin, TSAT; experiment: VIT-30 efficacy: hemoglobin and iron indices; type: in vivo, human
Method: Study visits were on Days 0, 3, 7, 10, 14, 28, 56, and 120. A phone assessment occurred on Day 90.
The Venofer Group received 5 doses of Venofer, 200 mg for a total dose of 1,000 mg.
For Venofer, subjects received, as an IV push injection over 2 to 5 minutes, 200 mg on Days 0, 7, and 14 with 2 additional doses given: 1 between Days 0 and 7 and the other between Days 7 and 14 (i.e., for a total of 5 doses [1,000 mg]).
For efficacy, the primary efficacy measure was the mean change from baseline to the highest observed hemoglobin any time between baseline and end of treatment period (Day 56) or time of intervention. Supportive efficacy measures included the following: (a) proportion of subjects achieving an increase in hemoglobin of ≧1 g/dL any time between baseline and end of treatment period (Day 56) or time of intervention; (b) mean change from baseline to the highest observed ferritin any time between baseline and treatment period (Day 56) or time of intervention; (c) mean change from baseline to the highest observed TSAT any time between baseline and treatment period (Day 56) or time of intervention; and (d) mean change from baseline to the pre-dosing value on Day 7 for hemoglobin, ferritin, and TSAT.
The hemoglobin baseline was defined as the average of the last 2 hemoglobin values from the central laboratory prior to the first dose of study drug. If only 1 centrally-measured hemoglobin value was available prior to the first dose of study drug, the single value was used for baseline. Non-inferiority was concluded if the lower limit of the 2-sided CI was ≧−0.075. This non-inferiority margin preserved >50% of the difference from oral iron observed previously.
The mean change from baseline to highest TSAT and ferritin was assessed for treatment group differences with the 95% 2-sided CI (based on normal distribution, assuming equal variances). Mean change from baseline to each scheduled visit was similarly assessed for hemoglobin, TSAT, ferritin, serum iron, total iron binding capacity, and unsaturated iron binding capacity. Baseline was calculated as described above. Assessments were assigned to scheduled visits as follows (if the assessment was on a dosing day for IV iron, the assessment before dosing was selected): • Day 7: Assessments on Days 4 through 10. • Day 14: Assessments on Days 11 through 21. • Day 28: Assessments on Days 22 through 35. • Day 56: Assessments on Days 50 through 63.

[2] = 13-week cumulative dose pre-clinical studies; type: in vivo, dogs and rats; settings: over 13 weeks; clinical signs of iron accumulation in liver, spleen, kidneys

## polynuclear iron (III)-hydroxide 4(R)-(poly-(1→4)-O-α-glucopyranosyl)-oxy-2(R),3(S),5(R),6-tetrahydroxy-hexanoate [FCM]
[1]; anytime between baseline and Day 56 or time of intervention
  proportion of subjects with an increase in hemoglobin ≧1.0 g/dL, FCM compared with Venofer: statistically significantly greater
[1]; baseline to highest value between baseline and Day 56 or time of intervention
  mean increases in ferritin, TSAT, serum iron and mean decreases in TIBC and unsaturated IBC, FCM compared with Venofer: statistically significantly greater
[1]; between baseline and Day 56 or time of intervention
  mean increase in hemoglobin from baseline to highest value, FCM compared with Venofer: statistically significantly greater
[1]; lower limit of 2-sided 95% CI ≧−0.2
  noninferiority test on mean increase in hemoglobin, FCM to Venofer: noninferiority
[1]; overall population, 2-sided 95% CI
  noninferiority test on proportion with hemoglobin increase ≧1.0 g/dL, FCM to Venofer: noninferiority
[2]
  cumulative dose with no observed adverse effect level: up to 117 mg iron/kg body weight
